Reference: patent US20200054594A1 (priority 2017, published 2020)

Key:
incision pain in rats = test: Incision pain test in rats, mechanical pain threshold by Electronic Von Frey; format: in vivo, male Wistar rats
rats = test: Toxic effects / adverse reactions observed during the rat incision pain study; format: in vivo, male Wistar rats; conditions: single agents, i.v.
Description: The rats were randomly divided into the following groups according to the body weight: blank control group (n=8), model group (n=8) and drug-administered group (n=48). The drug-administered group was divided into the following groups: compound 19-0.1 mg/kg group (n=8), compound 19-0.3 mg/kg group (n=8), compound 19-0.03 mg/kg+compound 35-0.1 mg/kg group (n=8), compound 19-0.03 mg/kg+compound 35-0.3 mg/kg group (n=8), compound 19-0.1 mg/kg+compound 35-0.1 mg/kg group (n=8), and compound 19-0.1 mg/kg+compound 35-0.3 mg/kg group (n=8). The model group and drug-administered group were subjected to an incision surgery. During the surgery, the rats were anesthetized with isoflurane. An incision (1 cm long) passing through the skin and fascia was made with a No. 10 surgical blade in the middle of the left hind paw. The skin was sutured with a 3-0 sterile silk surgical suture. The injured site was disinfected with antibiotic ointment and iodophor. The animals were returned to their original place to recover overnight. After 24 hours, the drug was injected through the tail vein, and the blank control group and the model group were administrated with the corresponding solvents. […] The mechanical pain threshold of each group was measured by the Electronic Von Frey 30 minutes after the injection to evaluate the analgesic effect of the drug on the surgical incision pain and the intensity thereof.

SMILES	increase of tenderness threshold compared with the model group (incision pain in rats; compound 19 0.1 mg/kg i.v. alone, 30 minutes after administration)	tenderness threshold (incision pain in rats; compound 19 0.1 mg/kg i.v. alone, 30 minutes after administration, model group 11.08 g, blank control 37.68 g)	toxic effects (such as slow movement and stiffness of limbs in rats), compound 19 alone versus compound 35 alone (rats)	increase of tenderness threshold compared with the model group (incision pain in rats; rat, in vivo, iv, 0.3 mg/kg)	tenderness threshold (incision pain in rats; rat, in vivo, iv, 0.3 mg/kg)
CCO[C@H]1CC[C@H](NCC[C@@]2(c3ccccn3)CCOC3(CCCC3)C2)c2ccccc21 [compound 19, (1S,4S)-4-Ethoxy-N-(2-((R)-9-(pyridin-2-yl)-6-oxaspiro[4.5]decan-9-yl)ethyl)-1,2,3,4-tetrahydronaphthalen-1-amine]	233.8%	36.99 g	more obvious toxic effects	–	–
CNC(=O)NC1CCN(C(=O)[C@@H](CCCCN)NC(=O)[C@@H](CC(C)C)NC(=O)[C@@H](Cc2ccccc2)NC(=O)[C@H](N)Cc2ccccc2)CC1 [compound 35, (R)—N—((R)-6-Amino-1-(4-(3-methylureido)piperidin-1-yl)-1-oxohexan-2-yl)-2-((R)-2-((R)-2-amino-3-phenylpropanamido)-3-phenylpropanamido)-4-methylpentanamide]	–	–	–	102.3%	22.42 g
